# Measurements from patent publication US7402606B2, “Derivatives of 1-(oxoaminoacetyl) pentylcarbamate as cathepsin K inhibitors for the treatment of bone loss” (SmithKline Beecham Corporation, priority 2002, dated 2008).
# pIC50: −log10 of the molar value.
# Assays:
# Type in all cases: biochemical
# [1] = biological target: human cathepsin H (Homo sapiens, UniProt P09668); assay: Cathepsin H inhibition assay, enzyme from human liver tissue, L-Arg-β-naphthalamide; conditions: Table 2, human cathepsin H; read-out: h Cat H IC50
# Sequence of human cathepsin H (P09668 116-335 limits assumed, other chains not shown): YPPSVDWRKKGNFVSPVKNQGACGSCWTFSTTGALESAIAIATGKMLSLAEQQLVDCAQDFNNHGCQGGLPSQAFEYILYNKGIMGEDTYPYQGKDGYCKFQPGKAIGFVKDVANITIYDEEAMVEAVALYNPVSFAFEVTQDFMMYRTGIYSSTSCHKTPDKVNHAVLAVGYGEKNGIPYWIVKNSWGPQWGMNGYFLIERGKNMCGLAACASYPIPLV
# Procedure: (§1) All assays for cathepsin K were carried out with human and rat recombinant enzyme. Assays for cathepsins S ? V were also carried out with human recombinant enzyme. Assays for human cathepsins B, H, and L were carried out with enzyme, purchased from Athens Research and Technology, Inc., prepared from human liver tissue. Standard assay conditions for the determination of kinetic constants used a fluorogenic peptide substrate, typically (5S,8S)-13-amino-5-benzyl-13-imino-3-methylene-N-(4-methyl-2-oxo-2H-chromen-7-yl)-6-oxo-1-phenyl-2-oxa-4,7,12triazatridecane-8-carboxamide (Cbz-Phe-Arg-AMC), and were determined in 100 mM sodium acetate at pH 5.5 containing 10 mM dithiothreitol and 120 mM sodium chloride. […]
# (§2) All assays contained 10% dimethyl sulfoxide. […] Product fluorescence (excitation at 360 nm; emission at 440 nm, (except cathepsin H which used excitation at 340 nm; emission at 420 nm)) was monitored with a PerSeptive Biosystems Cytofluor II fluorescence plate reader. […]
# (§3) Potential inhibitors were evaluated using the progress curve method. […] For those compounds whose progress curves were linear, the enzymatic activity (RATE) was plotted against the concentration of test compound, including inhibitor concentration of zero ([I]=0), and the IC50 determined from a fit of equation 1 to the data, RATE=Vmax/(1+([I]/IC50)) (1) where Vmax is the best fit estimate of the maximal enzymatic activity. […]
# [2] = biological target: human cathepsin V (Homo sapiens, UniProt O60911); assay: Cathepsin V inhibition assay, human recombinant enzyme, Cbz-Phe-Arg-AMC; conditions: Table 2, human cathepsin V; read-out: h Cat V IC50
# Sequence of human cathepsin V (O60911 114-334): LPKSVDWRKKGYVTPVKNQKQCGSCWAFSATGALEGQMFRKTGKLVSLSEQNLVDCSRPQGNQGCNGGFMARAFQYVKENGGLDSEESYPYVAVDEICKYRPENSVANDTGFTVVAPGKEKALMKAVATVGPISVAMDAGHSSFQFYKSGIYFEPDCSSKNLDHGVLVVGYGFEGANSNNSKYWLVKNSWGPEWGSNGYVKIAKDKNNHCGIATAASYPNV
# Procedure: as §1, §2, §3
# [3] = biological target: human cathepsin L (Homo sapiens, UniProt P07711); assay: Cathepsin L inhibition assay, enzyme from human liver tissue, Cbz-Phe-Arg-AMC; conditions: Table 2, human cathepsin L; read-out: h Cat L IC50
# Sequence of human cathepsin L (P07711 114-333): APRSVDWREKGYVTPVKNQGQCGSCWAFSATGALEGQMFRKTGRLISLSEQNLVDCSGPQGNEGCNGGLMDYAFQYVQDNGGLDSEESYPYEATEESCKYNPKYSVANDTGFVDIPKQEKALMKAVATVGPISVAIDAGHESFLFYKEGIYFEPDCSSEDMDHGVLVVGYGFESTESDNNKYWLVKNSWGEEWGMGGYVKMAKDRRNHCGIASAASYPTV
# Procedure: as §1, §2, §3
# [4] = biological target: human cathepsin B (Homo sapiens, UniProt P07858); assay: Cathepsin B inhibition assay, enzyme from human liver tissue, Cbz-Phe-Arg-AMC; conditions: Table 2, human cathepsin B; read-out: h Cat B IC50
# Procedure: as §1, §2, §3
# [5] = biological target: T1, rat cathepsin K (Rattus norvegicus, UniProt O35186); assay: Cathepsin K inhibition assay, rat recombinant enzyme, fluorogenic substrate Cbz-Phe-Arg-AMC; conditions: Table 2, rat cathepsin K; read-out: r Cat K IC50
# T1 construct: The proform of cathepsin K was converted to mature cathepsin K by brief exposure to pH 4; made in house; host or cells: baculovirus; Trichoplusia ni High Five cells (virus raised in Sf-9)
# T1 sequence (O35186 115-329): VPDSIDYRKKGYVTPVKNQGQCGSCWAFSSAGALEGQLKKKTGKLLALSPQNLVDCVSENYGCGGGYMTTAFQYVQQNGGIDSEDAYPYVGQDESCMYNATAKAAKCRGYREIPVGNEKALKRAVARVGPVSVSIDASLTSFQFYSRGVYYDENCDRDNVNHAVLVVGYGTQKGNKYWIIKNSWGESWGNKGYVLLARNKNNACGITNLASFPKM
# Procedure: as §1, §2
# Protein Purification: Media (human and rat) were filtered through a Whatman 3 filter, and then loaded onto a 25 mL. […] The column was washed until the absorbance reached the baseline value, and then the protein was eluted with a linear gradient from 0-2 M sodium chloride in the equilibration buffer. Column fractions were analyzed by SDS-PAGE, N-terminal sequencing, and mass spectrometry. […]
SMILES,pIC50 [1],pIC50 [2],pIC50 [3],pIC50 [4],pIC50 [5]
"CCCC[C@H](NC(=O)O[C@@H]1CN(C(=O)Nc2ccc(C(F)(F)F)cc2)CC1(C)C)C(=O)C(=O)Nc1ccn[nH]1 [Example 71, (3S)-4,4-dimethyl-1-{[4-(trifluoromethyl)anilino]carbonyl}pyrrolidinyl (1S)-1-[oxo(1H-pyrazol-5-ylamino)acetyl]pentylcarbamate]",6.00 to 7.00,7.00 to 8.00,6.00 to 7.00,6.00 to 7.00,7.00 to 8.00
"CCCC[C@H](NC(=O)O[C@@H]1CN(c2nnc(C(F)(F)F)s2)CC1(C)C)C(=O)C(=O)Nc1ccn[nH]1 [Example 82, (3S)-4,4-Dimethyl-1-[5-(trifluoromethyl)-1,3,4-thiadiazol-2-yl]pyrrolidinyl-(1S)-1-[oxo(1H-pyrazol-5-ylamino)acetyl]pentylcarbamate]",6.00 to 7.00,7.00 to 8.00,6.00 to 7.00,6.00 to 7.00,7.00 to 8.00
